What was measured:
Type in all cases: cell-based
[1] = target: T1, F508del-CFTR (Homo sapiens, UniProt P13569, DEL508-508); experiment: Transepithelial electrical conductance (TEEC) in FRT cells expressing F508del-CFTR; design: expressed in transfected cells; host or cells: FRT cells; conditions: tested at 5.0 μM, 24 hrs incubation
Protocol: FRT cells expressing F508del-CFTR were plated on HTS Transwell-24 well permeable supports (Code 3379, Corning Life Sciences) at a density of 200,000 cells/well. After six days, cells were incubated for 24 hrs with test correctors, vehicle, or VX-809. Compounds were dissolved in both basolateral (800 μL) and apical (300 μL) culture medium. After treatment, the culture medium was removed and replaced on both sides with a saline solution containing (in mM): 130 NaCl, 2.7 KCl, 1.5 KH2PO4, 1 CaCl2, 0.5 MgCl2, 10 glucose, 10 Na-Hepes (pH 7.4). The basolateral and apical side received 800 μL and 100 μL, respectively. The 24-well tray with cells was placed on a block heater (SBH 130D, Stuart) to keep the temperature at 37° C. during the entire experiment. After 10 min, the basal transepithelial electrical resistance (TEER) across each layer of FRT cells was measured with a STX100C electrode pair connected to an EVOM2 voltohmeter (World Precision Instruments). To stimulate F508del-CFTR, each well received (apical side) 50 μL of saline solution containing 60 μM forskolin and 150 μM genistein (final concentrations: 20 μM forskolin, 50 μM genistein). Forskolin was also pipetted in the basolateral medium to obtain the 20 μM concentration. After 10 min TEER was measured again in each well. To block F508del-CFTR function, the inhibitor PPQ-102 was used at the final concentration of 30 μM. To achieve the desired concentration, 75 μL of the apical solution in each well was replaced with an equal volume of saline solution containing 20 μM forskolin, 50 μM genistein, and 60 μM PPQ-102. After further 10 min, the transepithelial electrical resistance was measured. All values of TEER were converted to transepithelial electrical conductance (TEEC) using the formula TEEC=1/TEER. The parameter to indicate activity of F508del-CFTR in each well (ATEEC) was calculated from the difference in TEEC measured after maximal stimulation of F508del-CFTR with forskolin and genistein and after block with PPQ-102.
Corrector activities obtained on selected compounds tested at 5.0 μM (expressed as ΔTEEC values) are illustrated in Table 2, wherein+: ΔTEEC<2000 μS; ++: 2000 μS <ΔTEEC<3000ρS; +++: ΔTEEC>3000 μS.

[2] = target: mutant CFTR (Homo sapiens, UniProt P13569); experiment: Fluorescence assay for CFTR activity (halide-sensitive YFP, HS-YFP); conditions: CFBE41o- and FRT cells with stable expression of mutant CFTR
Sequence of mutant CFTR (P13569 with tags, fused parts or gaps DEL508-508): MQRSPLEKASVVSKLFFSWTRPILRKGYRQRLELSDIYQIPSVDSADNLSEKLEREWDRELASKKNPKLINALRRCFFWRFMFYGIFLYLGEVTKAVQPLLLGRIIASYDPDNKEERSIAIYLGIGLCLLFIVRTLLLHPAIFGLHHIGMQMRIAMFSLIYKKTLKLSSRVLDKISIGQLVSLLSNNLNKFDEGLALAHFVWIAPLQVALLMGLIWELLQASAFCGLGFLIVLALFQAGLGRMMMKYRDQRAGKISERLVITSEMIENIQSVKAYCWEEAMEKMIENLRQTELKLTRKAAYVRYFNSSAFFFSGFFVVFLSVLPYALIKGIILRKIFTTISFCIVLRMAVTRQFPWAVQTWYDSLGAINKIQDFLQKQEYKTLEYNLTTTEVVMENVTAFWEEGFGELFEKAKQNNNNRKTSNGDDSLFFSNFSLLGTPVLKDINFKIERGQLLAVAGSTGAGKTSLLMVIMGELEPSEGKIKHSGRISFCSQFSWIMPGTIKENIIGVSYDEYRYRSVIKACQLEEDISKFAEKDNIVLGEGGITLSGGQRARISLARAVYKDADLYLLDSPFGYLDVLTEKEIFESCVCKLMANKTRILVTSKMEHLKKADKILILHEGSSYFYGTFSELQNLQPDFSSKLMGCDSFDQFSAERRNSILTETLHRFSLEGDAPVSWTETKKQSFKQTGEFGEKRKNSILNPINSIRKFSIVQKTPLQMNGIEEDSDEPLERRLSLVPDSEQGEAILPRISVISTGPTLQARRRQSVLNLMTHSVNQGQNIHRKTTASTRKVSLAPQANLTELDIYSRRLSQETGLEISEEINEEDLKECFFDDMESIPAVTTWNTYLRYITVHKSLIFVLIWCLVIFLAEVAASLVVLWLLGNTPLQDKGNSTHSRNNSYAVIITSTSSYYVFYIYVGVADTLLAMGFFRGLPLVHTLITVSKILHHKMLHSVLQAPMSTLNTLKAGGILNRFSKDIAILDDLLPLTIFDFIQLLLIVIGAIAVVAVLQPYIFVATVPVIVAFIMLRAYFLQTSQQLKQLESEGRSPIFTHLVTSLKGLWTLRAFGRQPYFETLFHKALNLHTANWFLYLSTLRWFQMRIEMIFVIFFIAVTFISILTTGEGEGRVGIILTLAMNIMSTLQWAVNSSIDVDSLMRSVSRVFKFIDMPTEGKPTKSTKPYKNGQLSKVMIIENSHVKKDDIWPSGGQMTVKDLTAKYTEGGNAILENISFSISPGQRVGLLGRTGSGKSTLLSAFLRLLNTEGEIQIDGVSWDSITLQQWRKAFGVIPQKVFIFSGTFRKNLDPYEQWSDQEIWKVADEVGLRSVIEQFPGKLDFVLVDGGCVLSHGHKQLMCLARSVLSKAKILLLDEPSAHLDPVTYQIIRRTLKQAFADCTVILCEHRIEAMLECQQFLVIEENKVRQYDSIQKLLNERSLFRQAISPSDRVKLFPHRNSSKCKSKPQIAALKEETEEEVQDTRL
Method in brief: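 CFBE41o- or FRT cells stably expressing mutant CFTR and HS-YFP; correctors given 24 h, then 30 min forskolin 20 μM plus genistein 50 μM. Potentiators given 30 min with forskolin 20 μM, after 24 h at 27° C. for F508del, directly for G551D or G1349D. Quenching rate after 100 mM final I^− gives EC50.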

[3] = target: T1, F508del-CFTR; experiment: Short-circuit current recordings on human bronchial epithelial cells from CF patients (F508del/F508del); design: Human bronchial epithelial (HBE) cells obtained from CF patients (F508del/F508del genotype); endogenous in cells; host or cells: primary human bronchial epithelial cells from CF patients, F508del/F508del; conditions: HBE cells F508del/F508del, 24 hrs treatment, CPT-cAMP plus VX-770 minus CFTRinh-172
Protocol: Human bronchial epithelial (HBE) cells obtained from CF patients (F508del/F508del genotype) were plated on Snapwell inserts (Code 3801, Corning Life Sciences) at a density of 500,000 cells per insert. Cells were cultured for two weeks in a differentiating medium whose compositions has been previously described (Scudieri et al., J Physiol 590:6141-6155, 2012). For the first week, the medium was kept on both apical and basolateral sides of inserts (submerged condition). For the second week, the apical medium was removed (air-liquid condition, ALC). To test the activity of correctors, cells were treated for 24 hrs with compounds dissolved in the basolateral medium. After treatment, Snapwell inserts carrying differentiated bronchial epithelia were mounted in a vertical chamber resembling an Ussing system with internal fluid circulation. Both apical and basolateral hemichambers were filled with 5 mL of a Krebs bicarbonate solution containing (in mM): 126 NaCl, 0.38 KH2PO4, 2.13 K2HPO4, 1 MgSO4, 1 CaCl2, 24 NaHCO3, and 10 glucose. Both sides were continuously bubbled with a gas mixture containing 5% CO2-95% air and the temperature of the solution was kept at 37° C. The transepithelial voltage was short-circuited with a voltage-clamp (DVC-1000, World Precision Instruments) connected to the apical and basolateral chambers via Ag/AgCl electrodes and agar bridges (1 M KCl in 1% agar). The offset between voltage electrodes and the fluid resistance were canceled before experiments. The short-circuit current was recorded with a PowerLab 4/25 (ADInstruments) analogical to digital converter connected to a Macintosh computer. […] The difference between the current measured with CPT-cAMP plus potentiator and the current remaining after CFTRinh-172 treatment (ΔICFTR) was taken as the parameter reflecting F508del-CFTR expression in the apical membrane.
Activities of selected compounds on HBE cells (expressed as ΔICFTR) are illustrated in Table 3 wherein+: ΔICFTR<2.0 μA; ++: 2.0 μA<ΔICFTR<3.0 μA; +++: ΔICFTR >3.0 μA.

T1 sequence (P13569 with tags, fused parts or gaps DEL508-508): as above

Row | SMILES | activity (corrector activity expressed as ΔTEEC) [1] | EC50 [2] [nM] | activity (ΔICFTR) [3]
1 | Cc1cc(S(=O)(=O)N2CCOC(c3c(C(N)=O)sc4ccccc34)C2)ccc1F (racemic) [compound 001, rac-3-[4-(4-fluoro-3-methyl-benzenesulfonyl)-morpholin-2-yl]-benzo[b]thiophene-2-carboxylic acid amide] | ++ (2000 μS <ΔTEEC<3000ρS) | > 2000 | + (ΔICFTR<2.0 μA)
2 | NC(=O)c1sc2ccccc2c1C1CN(S(=O)(=O)c2ccc(C(F)(F)F)cc2)CCO1 (racemic) [compound 011, rac-3-[4-[4-(trifluoromethyl)phenyl]sulfonylmorpholin-2-yl]benzothiophene-2-carboxamide] | ++ (2000 μS <ΔTEEC<3000ρS) | 1000 to 2000 | +++ (ΔICFTR >3.0 μA)
3 | Cc1nc2ccc(S(=O)(=O)N3CCOC(c4c(C(N)=O)sc5ccccc45)C3)cc2o1 (racemic) [compound 034, rac-3-[4-[(2-methyl-1,3-benzoxazol-6-yl)sulfonyl]morpholin-2-yl]benzothiophene-2-carboxamide] | ++ (2000 μS <ΔTEEC<3000ρS) | < 1000 | +++ (ΔICFTR >3.0 μA)
4 | NC(=O)c1sc2ccccc2c1C1CN(S(=O)(=O)c2ccc(C(F)(F)F)c(F)c2)CCO1 (racemic) [compound 041, rac-3-[4-[3-fluoro-4-(trifluoromethyl)phenyl]sulfonylmorpholin-2-yl]benzothiophene-2-carboxamide] | +++ (ΔTEEC>3000 μS) | < 1000 | ++ (2.0 μA<ΔICFTR<3.0 μA)

Source: patent US12391680B2, “Compounds and compositions for the treatment of cystic fibrosis” (FONDAZIONE ISTITUTO ITALIANO DI TECNOLOGIA, priority 2019, dated 2025)
